Laboratory results reported in patent US12061202B2, “Compositions and methods for bioluminescent detection using multifunctional probes” (Promega Corporation, priority 2019, dated 2024).
pEC50: −log10 of the molar value.

Columns and labels:
Format in all cases: cell-based
Raji cells [1] = experiment: Cell viability after labeling, CellTiter-Glo, Raji
Experimental: (§1) For assay optimization, labeling the cells at different probe concentrations and setting up cell titration curves can be advantageous. To evaluate effect of labeling on cell viability, different viability/toxicity assays can also be used. Here, an example of assay optimization is provided using Raji and K562 cells. […] However, labeling efficiency, toxicity, assay linearity, and assay window differed depending on the cell line and labeling conditions. […] Labeling K562 at 2 μM extended linear range of the assay up to 20,000 cells/well, however assay window decreased from 18-fold to 7-8-fold.
(§2) No labeling control was included for toxicity evaluation. After labeling, the cells were resuspended in appropriate medium, counted, and plated into wells of a 96-well plate at two-fold serial dilution starting from 20,000 cells/well. The Detection Reagents with or without digitonin were added as described above, and the plates were placed into a tissue culture incubator. After incubation, Nano-Glo® Luciferase Assay substrate was added to the samples, and luminescence was read. After reading luminescence, an equal volume of CellTiter-Glo was added to the samples to measure changes in viability. […] The linear range of the assay is underlined. Dead/Live is the ratio between luminescence signal of dead and live cells calculated after assay background subtraction (media control).

SKBR3 = experiment: Release of labeled proteins from dead cells, NanoBiT bioluminescence, SKBR3; conditions: final labeling probe concentration 10 μM
Experimental: (§3) Next, the bifunctional labeling probe was thawed at room temperature and mixed. The probe was generally contained in DMSO. The bifunctional probe was added to the cells at a final concentration between about 0.5-10 μM. The cells were then mixed by gently pipetting and incubated for 30 minutes at 37° C. To inactivate unreactive free labeling probe, a 10× volume of pre-warmed (37° C.) cell culture medium containing 10% FBS was added, and the cells incubated for additional 5 minutes. The labeled cells were then spun down, and the labeling media removed. The cells were resuspended in fresh cell culture media at the concentration required for the experiment.
(§4) In some embodiments, one or more components of the NanoBiT® system can be used for measuring cell death of pre-labeled cell population in mixed cell cultures. […]
(§5) Labeled cells (1,250-10,000 cells/well) were plated with experimental treatment conditions (e.g., drug, effector cells, etc.) in 50 μl of appropriate medium. Wells without cells were included as negative controls to determine background luminescence in the media. […]
(§6) About 50 μl of prepared Detection Reagent was added into all assay wells and negative (media) control wells. […] About 25 μL of prepared substrate was added to the assay wells, mixed, and luminescence was read.

HCT116 = experiment: Release of labeled proteins from dead cells, NanoBiT bioluminescence, HCT116; conditions: final labeling probe concentration 10 μM
Experimental: as §3, §4, §5, §6

K562 cells [2] = experiment: Release of labeled proteins from dead cells, NanoBiT bioluminescence (HaloTag-SmBiT/HaloTag-LgBiT), K562; conditions: for Dead/Live at 5,000 cells/well: final labeling probe concentration 5 μM; for Dead, RLUs: dead (digitonin treated) cells; for Live, RLUs: live cells; for Dead/Live: ratio after background subtraction
Experimental: as §3
(§7) In some embodiments, one or more components of the NanoBiT® system can be used for measuring cell death of pre-labeled cell population in mixed cell cultures. Here, an exemplary protocol is described for using this assay in 96-well plates in […]: 50 μl of sample+50 μl of Detection Reagent+25 μl of Nano-Glo® Luciferase Assay substrate.
(§8) Labeled cells (1,250-10,000 cells/well) were plated with experimental treatment conditions (e.g., drug, effector cells, etc.) in 50 μl of appropriate medium. Wells without cells were included as negative controls to determine background luminescence in the media. Separate wells were included with pre-labeled cells for determining maximum release of labeled proteins. Detection Reagents were assembled: about 1 ml of Detection Reagent buffer (2×) was combined with about 1.25 μl of Detection Component 1 and 1.25 μl of Detection Component 2. If maximum release determination was needed, the required amount of prepared Detection Reagent (50 μl/per sample) was removed, and digitonin at 0.12 mg/ml concentration added (for example, add 6 μl to 1 ml of Detection Reagent).
(§9) About 50 μl of prepared Detection Reagent was added into all assay wells and negative (media) control wells. Detection Reagent with Digitonin was added into control wells for determining maximum release. The cells were placed into a tissue culture incubator, and the treatment continued up to 24 hours. Nano-Glo® Luciferase Assay Substrate was prepared by diluting (1:50) substrate into assay medium. The assay plate was then removed from the tissue culture incubator and equilibrated to room temperature for about 5 mins. About 25 μL of prepared substrate was added to the assay wells, mixed, and luminescence was read.
as §2

K562 cells [3] = experiment: Cell viability after labeling, CellTiter-Glo, K562; conditions: labeled at 2 and 5 μM
Experimental: as §1, §2

Raji cells [4] = experiment: Release of labeled proteins from dead cells, NanoBiT bioluminescence, Raji; conditions: for Dead/Live at 5,000 cells/well: final labeling probe concentration 2 μM; for Dead, RLUs: dead (digitonin treated) cells; for Live, RLUs: live cells; for Dead/Live: ratio after background subtraction
Experimental: as §3, §7, §8, §9, §2

various cell types = experiment: Labeling of various cell types with bifunctional probe, NanoBiT detection (FIG. 2B)
Excerpt: As shown in FIGS. 2A-2B, a variety of cells were labeled with the bifunctional probes of the present disclosure. FIG. 2A is a representative schematic diagram of a method used to label the various target cells identified in FIG. 2B. […] Robust luminescence was detected from the labeled proteins released after cell death, which were quantified using the NanoBiT® system, while little luminescence was detected in the media and live cells.
In accordance with these experiments, the various cell types tested were collected by centrifugation for 5 mins at 300 g followed by aspiration of the media and resuspension in PBS. The bifunctional probe was then added to the media and allowed to incubate for 30 mins at 37° C. Pre-warmed (37° C.) complete media containing 10% serum was then added to the cells and incubated for 5 mins at 37° C. The labeled cells were then collected by centrifugation for 5 mins at 300 g and excess media was removed, and the labeled cells were then resuspended in the desired media. NanoBiT® detection reagents were then added to the labeled cells and allowed to incubate for 30 mins at 37° C. prior to reading luminescence (RLUs).

A431 = experiment: Release of labeled proteins from dead cells, NanoBiT bioluminescence, A431; conditions: final labeling probe concentration 10 μM
Experimental: as §3, §4, §5, §6

Raji target cells = experiment: Bispecific T-cell engager (BiTE) target cell lysis, labeled Raji target cells with TALL-104 effector cells; conditions: Raji (1.67 μM Labeling probe); TALL-104 effector 2.5:1; 6 hours at 37° C.
Experimental: BiTEs are a class of artificial bispecific monoclonal antibodies that are investigated for the use as anti-cancer drugs as they are used to direct the T cells' cytotoxic activity to target cells (e.g., cancer cells). As shown, Raji target cells (1.67 μM Labeling probe) and TALL-104 effector cells were co-cultured at 2.5:1 ratio (12,500 effector to 5,000 target) in a 96-well assay plate. Bincyto was titrated at indicated concentrations and assay plate was incubated for 6 hours at 37° C. prior to Nano-Glo® Luciferase Assay Substrate addition. Curves were generated following assay background subtraction as described in above. […] S/B=BiTE/no BiTE. % antibody dependent target cell lysis=100×(RLU [target+ effector+antibody]−RLU [target+ effector])/(RLU [target+ effector+digitonin]−RLU [target+ effector]).

Daudi cells = experiment: Antibody dependent cellular cytotoxicity (ADCC), labeled Daudi cells co-cultured with PBMC; conditions: Daudi labeled with 1 μM Labeling Probe; PBMC E:T 20:1; 5 hours at 37° C.
Experimental: As shown in FIGS. 3A-3C, experiments were conducted to test antibody dependent cellular cytotoxicity (ADCC) in Daudi (FIGS. 3A-3B) and SKBR3 (FIG. 3C) cells labeled with the bifunctional probes of the present disclosure. Daudi and SKBR3 cells were labeled with 1 μM and 10 μM Labeling Probe respectively and co-cultured with peripheral blood mononuclear cells (PBMC; Cellular Technologies Limited) at an E:T ratio of 20:1 (100,000 effector to 5,000 target) with indicated antibody titrations for 5 hours at 37° C. prior to Nano-Glo® Luciferase Assay Substrate addition. […] Curves in FIGS. 3B and 3C were generated following assay background subtraction (RLU [Target cells+Effector cells+Detection Components]−RLU [Media+Detection Components]) using a four parametric variable slope algorithm in Prism.

## O=C(NCCOCCOCCCCCCCl)c1ccc(C(=O)ON2C(=O)CCC2=O)cc1 [Labeling Probe, 2,5-dioxopyrrolidin-1-yl 4-((2-(2-((6-chlorohexyl)oxy)ethoxy)ethyl)carbamoyl)benzoate]
Raji cells [1]; labeling concentration 1 μM
  effect on cell viability: without significant effect on cell viability
Raji cells [1]; labeling with 5 μM
  decrease in cell viability as measured by CellTiter-Glo: more than 40%
SKBR3; at 4 h
  Dead/Live at 5,000 cells/well: 10.1
SKBR3; at 24 h
  Dead/Live at 5,000 cells/well: 10.9
HCT116; at 4 h
  Dead/Live at 5,000 cells/well: 8.1
HCT116; at 24 h
  Dead/Live at 5,000 cells/well: 6.7
K562 cells [2]; at 4 h
  Dead/Live at 5,000 cells/well: 18.3
K562 cells [2]; at 24 h
  Dead/Live at 5,000 cells/well: 19.0
K562 cells [2]; labeling at 2 μM
  assay window: 7-8 fold
K562 cells [2]; labeling at 5 μM
  assay window: 18 fold
K562 cells [2]; probe 2 μM, 1,250 cells/well
  Dead, RLUs: 69,663 RLUs
  Live, RLUs: 37,113 RLUs
  Dead/Live: 5.0
K562 cells [2]; probe 2 μM, 2,500 cells/well
  Dead, RLUs: 88,448 RLUs
  Live, RLUs: 40,600 RLUs
  Dead/Live: 5.2
K562 cells [2]; probe 2 μM, 5,000 cells/well
  Dead, RLUs: 114,346 RLUs
  Live, RLUs: 42,059 RLUs
  Dead/Live: 7.6
K562 cells [2]; probe 2 μM, 10,000 cells/well
  Dead, RLUs: 154,018 RLUs
  Live, RLUs: 47,861 RLUs
  Dead/Live: 7.3
K562 cells [2]; probe 2 μM, 20,000 cells/well
  Dead, RLUs: 192,283 RLUs
  Live, RLUs: 51,528 RLUs
  Dead/Live: 7.9
K562 cells [2]; probe 5 μM, 1,250 cells/well
  Dead, RLUs: 236,022 RLUs
  Live, RLUs: 43,298 RLUs
  Dead/Live: 18.1
K562 cells [2]; probe 5 μM, 2,500 cells/well
  Dead, RLUs: 373,598 RLUs
  Live, RLUs: 50,284 RLUs
  Dead/Live: 18.7
K562 cells [2]; probe 5 μM, 5,000 cells/well
  Dead, RLUs: 591,060 RLUs
  Live, RLUs: 60,873 RLUs
  Dead/Live: 19.4
K562 cells [2]; probe 5 μM, 10,000 cells/well
  Dead, RLUs: 620,751 RLUs
  Live, RLUs: 76,596 RLUs
  Dead/Live: 13.1
K562 cells [2]; probe 5 μM, 20,000 cells/well
  Dead, RLUs: 477,185 RLUs
  Live, RLUs: 78,093 RLUs
  Dead/Live: 9.4
K562 cells [2]; within the linear range of the assay
  increase in light output in live cells as compared to media control: less than 2 fold
K562 cells [3]
  cell viability measured with CellTiter-Glo: no decrease in cell viability
Raji cells [4]; at 4 h
  Dead/Live at 5,000 cells/well: 35.4
Raji cells [4]; at 24 h
  Dead/Live at 5,000 cells/well: 21.7
Raji cells [4]; labeling concentration 1 μM
  assay window: > 5 fold
Raji cells [4]; labeling with 5 μM
  increase in luminescence signal in live cells from media only control: > 2 fold
Raji cells [4]; probe 1 μM, 1,250 cells/well
  Dead, RLUs: 112,901 RLUs
  Live, RLUs: 71,937 RLUs
  Dead/Live: 6.0
Raji cells [4]; probe 1 μM, 2,500 cells/well
  Dead, RLUs: 164,403 RLUs
  Live, RLUs: 78,455 RLUs
  Dead/Live: 6.8
Raji cells [4]; probe 1 μM, 5,000 cells/well
  Dead, RLUs: 257,879 RLUs
  Live, RLUs: 88,466 RLUs
  Dead/Live: 7.9
Raji cells [4]; probe 1 μM, 10,000 cells/well
  Dead, RLUs: 403,731 RLUs
  Live, RLUs: 107,531 RLUs
  Dead/Live: 7.8
Raji cells [4]; probe 1 μM, 20,000 cells/well
  Dead, RLUs: 731,355 RLUs
  Live, RLUs: 134,572 RLUs
  Dead/Live: 9.4
Raji cells [4]; probe 5 μM, 1,250 cells/well
  Live, RLUs: 210,695 RLUs
  Dead/Live: 7.7
Raji cells [4]; probe 5 μM, 2,500 cells/well
  Dead, RLUs: 2,179,562 RLUs
  Live, RLUs: 317,452 RLUs
  Dead/Live: 8.2
Raji cells [4]; probe 5 μM, 5,000 cells/well
  Dead, RLUs: 3,826,655 RLUs
  Live, RLUs: 508,581 RLUs
  Dead/Live: 8.4
Raji cells [4]; probe 5 μM, 10,000 cells/well
  Dead, RLUs: 4,916,472 RLUs
  Live, RLUs: 672,232 RLUs
  Dead/Live: 7.9
Raji cells [4]; probe 5 μM, 20,000 cells/well
  Dead, RLUs: 3,314,700 RLUs
  Live, RLUs: 645,489 RLUs
  Dead/Live: 5.6
Various cell types
  uptake of probe by cells: successfully taken up by every cell tested
A431; at 4 h
  Dead/Live at 5,000 cells/well: 7.4
A431; at 24 h
  Dead/Live at 5,000 cells/well: 6.2

## Bincyto: bispecific T-cell engager (BiTE) titrated on Raji target cells with TALL-104 effector cells
Raji target cells
  pEC50: 5.27

## Rituximab: antibody titrated in ADCC assay on Daudi cells
Daudi cells
  EC50: 6.8 ng/mL
